Measured values as given in patent publication US20250084033A1, “METHOD OF PROMOTING PERACETIC ACID DECOMPOSITION USING METAL COMPOUND, AND METHOD OF CULTURING MICROORGANISMS USING SAME” (N-CELL CO.,LTD, priority 2022, published 2025).

test system: Euglena gracilis; assay: not given; conditions: Table 3; acetic acid added; 680 nm; cultivation time 0 Day
Experimental: A nutrient medium for the cultivation of Euglena gracilis (prepared with triple-distilled water, KH2PO4, citrate, MgSO4·3H2O, vitamin B1, vitamin B6, vitamin B12, vitamin H, yeast extract, peptone, and dextrose) was autoclaved at 121° C. for 15 minutes. Sodium acetate (CH3COONa) was then added to the prepared nutrient medium at a concentration of 0.05% (w/v), and an inoculum of Euglena gracilis (KCTC AG40099) was introduced. The culture was incubated at 130 rpm, 28° C., and under light conditions of 100 μE photons/m^2/s. Growth was measured by monitoring absorbance at a wavelength of 680 nm.
The experiment was conducted in the same manner as in Example 11, except that acetic acid was added instead of sodium acetate.
The experiment was conducted in the same manner as in Comparative Example 2,except that acetic acid was added to the prepared nutrient medium at concentrations of 0.1% (w/v) (Comparative Example 3), 0.15% (w/v) (Comparative Example 4), 0.2% (w/v) (Comparative Example 5), and 0.25% (w/v) (Comparative Example 6), instead of sodium acetate.

Structure (SMILES)	absorbance of the Euglena gracilis culture solution [AU]
CC(=O)O [Comparative Example 2, acetic acid]	1.3738
CC(=O)O [Comparative Example 3, acetic acid]	1.8372
CC(=O)O [Comparative Example 4, acetic acid]	1.831
CC(=O)O [Comparative Example 5, acetic acid]	1.686
CC(=O)O [Comparative Example 6, acetic acid]	1.7554

same assay, conditions: Table 3; acetic acid added; 680 nm; cultivation time 1 Day

Structure (SMILES)	absorbance of the Euglena gracilis culture solution [AU]
CC(=O)O [Comparative Example 2, acetic acid]	2.1945
CC(=O)O [Comparative Example 3, acetic acid]	1.712
CC(=O)O [Comparative Example 4, acetic acid]	1.598
CC(=O)O [Comparative Example 5, acetic acid]	1.5025
CC(=O)O [Comparative Example 6, acetic acid]	1.5195

same assay, conditions: Table 3; acetic acid added; 680 nm; cultivation time 2 Days

Structure (SMILES)	absorbance of the Euglena gracilis culture solution [AU]
CC(=O)O [Comparative Example 2, acetic acid]	3.929

same assay, conditions: Table 3; acetic acid added; 680 nm; cultivation time 4 Days

Structure (SMILES)	absorbance of the Euglena gracilis culture solution [AU]
CC(=O)O [Comparative Example 2, acetic acid]	10.34

same assay, conditions: Table 3; acetic acid added; 680 nm; cultivation time 5 Days

Structure (SMILES)	absorbance of the Euglena gracilis culture solution [AU]
CC(=O)O [Comparative Example 2, acetic acid]	11.063

same assay, conditions: Table 4; sodium acetate added; 680 nm; cultivation time 0 Day

Structure (SMILES)	absorbance of the Euglena gracilis culture solution [AU]
CC(=O)[O-].[Na+] [Example 11, sodium acetate]	1.33
CC(=O)[O-].[Na+] [Example 12, sodium acetate]	1.316
CC(=O)[O-].[Na+] [Example 13, sodium acetate]	1.3882
CC(=O)[O-].[Na+] [Example 14, sodium acetate]	1.3602
CC(=O)[O-].[Na+] [Example 15, sodium acetate]	1.4034

same assay, conditions: Table 4; sodium acetate added; 680 nm; cultivation time 1 Day

Structure (SMILES)	absorbance of the Euglena gracilis culture solution [AU]
CC(=O)[O-].[Na+] [Example 11, sodium acetate]	2.2345
CC(=O)[O-].[Na+] [Example 12, sodium acetate]	2.1825
CC(=O)[O-].[Na+] [Example 13, sodium acetate]	2.1605
CC(=O)[O-].[Na+] [Example 14, sodium acetate]	2.1565
CC(=O)[O-].[Na+] [Example 15, sodium acetate]	2.1945

same assay, conditions: Table 4; sodium acetate added; 680 nm; cultivation time 2 Days

Structure (SMILES)	absorbance of the Euglena gracilis culture solution [AU]
CC(=O)[O-].[Na+] [Example 11, sodium acetate]	3.898
CC(=O)[O-].[Na+] [Example 12, sodium acetate]	3.969
CC(=O)[O-].[Na+] [Example 13, sodium acetate]	3.861
CC(=O)[O-].[Na+] [Example 14, sodium acetate]	3.709
CC(=O)[O-].[Na+] [Example 15, sodium acetate]	3.803

same assay, conditions: Table 4; sodium acetate added; 680 nm; cultivation time 4 Days

Structure (SMILES)	absorbance of the Euglena gracilis culture solution [AU]
CC(=O)[O-].[Na+] [Example 11, sodium acetate]	8.511
CC(=O)[O-].[Na+] [Example 12, sodium acetate]	7.739
CC(=O)[O-].[Na+] [Example 13, sodium acetate]	7.52
CC(=O)[O-].[Na+] [Example 14, sodium acetate]	7.624
CC(=O)[O-].[Na+] [Example 15, sodium acetate]	7.369

same assay, conditions: Table 4; sodium acetate added; 680 nm; cultivation time 5 Days

Structure (SMILES)	absorbance of the Euglena gracilis culture solution [AU]
CC(=O)[O-].[Na+] [Example 11, sodium acetate]	9.852
CC(=O)[O-].[Na+] [Example 12, sodium acetate]	8.442
CC(=O)[O-].[Na+] [Example 13, sodium acetate]	8.561
CC(=O)[O-].[Na+] [Example 14, sodium acetate]	8.665
CC(=O)[O-].[Na+] [Example 15, sodium acetate]	8.405

same assay, conditions: acetic acid or sodium acetate 0.05-0.25% (w/v) in nutrient medium

Structure (SMILES)	effect on growth of Euglena gracilis (in words)
CC(=O)O [Comparative Example 2, acetic acid]	no inhibitory effect
CC(=O)[O-].[Na+] [sodium acetate]	does not inhibit the growth of Euglena

test system: Euglena gracilis; assay: Growth of Euglena gracilis in peracetic acid-treated medium with sodium bicarbonate (absorbance 680 nm); format: cell-based; conditions: PAA 0.05% (w/v) with or without sodium bicarbonate 0.05-0.3% (w/v)
Experimental: The growth of Euglena was measured by monitoring absorbance at a wavelength of 680 nm.

Structure (SMILES)	growth of Euglena gracilis (in words)
O=C([O-])O.[Na+] [sodium bicarbonate]	does not specifically affect the growth of Euglena gracilis
